Measured values taken from patent US12617777B2, “GPR84 antagonists and uses thereof” (Liminal BioSciences Limited, priority 2021, dated 2026).

Molecular target: T1, human GPR84 receptor (Homo sapiens, UniProt Q9NQS5)
T1 construct: host or cells: HEK293, transient transfection
Experiment: Gαi biosensor BRET assay in HEK293 cells (antagonism of ZQ-16)
Format: cell-based
Conditions: for inhibition at 10 µM: HEK293, single concentration 10 μM (designated F); for IC50: HEK293 cells, antagonism of 200 nmol/L ZQ-16; for inhibition at 25 µM: HEK293, single concentration 25 μM (designated I); for inhibition at 2 µM: HEK293, single concentration 2 μM (designated A)
Outline: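 HEK293 cells transiently expressing human GPR84, Gαi2-Rluc8, GFP10-Gγ2 and Gβ1, in Tyrode's buffer pH 7.5. Compounds preincubated 5 min at 37° C, then 200 nmol/L ZQ-16 for 5 min at room temperature; coelenterazine 400A 5 μmol/L. BRET2 acceptor/donor ratio, background- and vehicle-corrected net BRET.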

T1 sequence (Q9NQS5 whole entry): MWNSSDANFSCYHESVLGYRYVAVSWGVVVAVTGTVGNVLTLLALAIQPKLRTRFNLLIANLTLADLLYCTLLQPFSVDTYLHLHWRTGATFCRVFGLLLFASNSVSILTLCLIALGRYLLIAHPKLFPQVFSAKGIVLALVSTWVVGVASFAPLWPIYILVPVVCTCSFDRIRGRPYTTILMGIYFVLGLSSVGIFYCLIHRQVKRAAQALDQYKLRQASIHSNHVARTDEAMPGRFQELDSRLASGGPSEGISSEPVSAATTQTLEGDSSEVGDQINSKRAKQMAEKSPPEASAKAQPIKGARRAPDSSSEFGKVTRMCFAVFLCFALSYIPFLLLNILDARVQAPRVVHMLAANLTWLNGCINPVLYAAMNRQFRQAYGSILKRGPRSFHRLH

Compound: Cc1cc(N2CC(C)(C)C2)cnc1-c1cn(CC2CCCCO2)cn1 (stereo not drawn) [Compound I-609]
- inhibition at 10 µM: 50 to 75%
- IC50: > 3000 nM

Compound: Cc1cc(N2CC(C(F)F)C2)ccc1-c1cn(CC2CCCCO2)nn1 (stereo not drawn) [Compound I-520]
- inhibition at 10 µM: 50 to 75%

Compound: O=c1oc(CC2CCCCO2)nn1-c1ccc(C#CC2CC2)cc1 (stereo not drawn) [Compound I-11]
- inhibition at 25 µM: 25 to 50%

Compound: COC(Cc1cc(C#CC2CC2)ccc1C)c1cn(CC2OCC(C)(C)CO2)nn1 (stereo not drawn) [Compound I-753]
- inhibition at 10 µM: > 75%

Compound: Cc1cc(C#CCN2CC(C)(C)C2)cnc1-c1nnn(CC2OCC(C)(C)CO2)n1 [Compound I-835]
- inhibition at 10 µM: ≤ 25%

Compound: CC1(C)COC(Cn2cc(-c3ncc(C#CC4CC4)cc3CC(F)(F)F)nn2)OC1 [Compound I-750]
- inhibition at 10 µM: > 75%
- IC50: ≤ 300 nM

Compound: Cc1noc(COc2ccc(-c3cn(CC4CCCCO4)nn3)c(C)c2)n1 (stereo not drawn) [Compound I-469]
- inhibition at 10 µM: ≤ 25%

Compound: Cc1ccc(C#CC2CC2)cc1Nc1cnn(CC2OCC(C)(C)CO2)n1 [Compound I-759, N-(5-(cyclopropylethynyl)-2-methylphenyl)-2-((5,5-dimethyl-1,3-dioxan-2-yl)methyl)-2H-1,2,3-triazol-4-amine]
- inhibition at 10 µM: ≤ 25%

Compound: Cc1cc(N2CCN(C(=O)c3ccccc3)CC2)ccc1-c1cn(CC2CCCCO2)nn1 (stereo not drawn) [Compound I-236]
- inhibition at 10 µM: 50 to 75%
- IC50: 1000 to 3000 nM

Compound: Cc1cc(C#CCNC(=O)c2ccccc2)ccc1-c1cn(CC2CCCCO2)nn1 (stereo not drawn) [Compound I-209]
- IC50: > 2000 nM

Compound: Cc1cc(C#CCN2CC(C)(C)C2)cnc1-c1cn(CC2Oc3ccccc3O2)nn1 [Compound I-627]
- inhibition at 10 µM: > 75%

Compound: Cc1cc(N2CCCC(O)C2)ccc1-c1cn(CC2CCCCO2)nn1 (stereo not drawn) [Compound I-450]
- inhibition at 10 µM: 25 to 50%

Compound: CC1(C)COC(Cn2cc(-c3ncc(C#CCN4CC(C)(C)C4)cc3Cl)nn2)OC1 [Compound I-777]
- IC50: 1000 to 3000 nM

Compound: Cc1cc(N2CC(C)(C)C2)cnc1-c1cn(CC2OCC(C)(C)CO2)cn1 [Compound I-726]
- inhibition at 10 µM: > 75%

Compound: Cc1c(-c2ccc(OCc3ccccn3)cc2)nnn1CC1CCCCO1 (stereo not drawn) [Compound I-50]
- inhibition at 25 µM: 25 to 50%

Compound: CC(C)Oc1cc(C#CC2CC2)cnc1-c1cn(Cc2ncccn2)nn1 [Compound I-502]
- inhibition at 10 µM: > 75%
- IC50: 1000 to 3000 nM

Compound: Cc1cc(C#CC2CC2)ccc1-c1cn(Cc2ccccn2)nn1 [Compound I-312]
- inhibition at 10 µM: 25 to 50%

Compound: CCc1cc(N2CC(C)(O)C2)ccc1-c1cn(CC2OCC(C)(C)CO2)nn1 [Compound I-641]
- inhibition at 10 µM: > 75%
- IC50: 300 to 1000 nM

Compound: Cc1cc(C#CC2CC(F)(F)C2)ccc1-c1cn(CC2CCCCO2)nn1 (stereo not drawn) [Compound I-640]
- inhibition at 10 µM: > 75%

Compound: Cc1cc(N2CCC(N(C)Cc3ccccc3)CC2)ccc1-c1cn(CC2CCCCO2)nn1 (stereo not drawn) [Compound I-141]
- inhibition at 10 µM: ≤ 25%

Compound: Cc1nn(CC2CCCCO2)cc1-c1cccc(C#CC2CC2)c1 (stereo not drawn) [Compound I-323]
- inhibition at 25 µM: ≤ 25%

Compound: CC1(C)CCC(Cn2cc(-c3ncc(C#CC4CC4)cc3OC3CC3)nn2)OC1 (stereo not drawn) [Compound I-739]
- inhibition at 2 µM: > 75%
- IC50: ≤ 300 nM

Compound: Cc1cc(C#CCNc2ccccc2)ccc1-c1cn(CCC2CCCCO2)nn1 (stereo not drawn) [Compound I-306]
- inhibition at 10 µM: 25 to 50%

Compound: Cc1cc(N2C3CCC2CN(Cc2ccccn2)C3)ccc1-c1cn(CC2CCCCO2)nn1 (stereo not drawn) [Compound I-430]
- inhibition at 10 µM: 25 to 50%
- IC50: 300 to 1000 nM

Compound: Cc1cc(C2CCN(c3ccccn3)CC2)ccc1-c1cn(CC2CCCCO2)nn1 (stereo not drawn) [Compound I-583]
- inhibition at 10 µM: ≤ 25%

Compound: FC(F)(F)COc1cc(C#CC2CC2)cnc1-c1cn(CC2OCC3(CCC3)O2)nn1 (stereo not drawn) [Compound I-815]
- inhibition at 2 µM: > 75%

Compound: Cc1cc(C#CCN2CC(C)(C)C2)ccc1-c1cn(CC2OCC(F)(F)CO2)nn1 [Compound I-700]
- inhibition at 2 µM: 50 to 75%

Compound: C(#CC1CC1)c1csc(-c2cn(CC3CCCCO3)nn2)n1 (stereo not drawn) [Compound I-241]
- inhibition at 10 µM: ≤ 25%

Compound: Cc1cc(C#CCn2cc(C3CC3)nn2)cnc1-c1cn(CC2CCCCO2)nn1 (stereo not drawn) [Compound I-732]
- inhibition at 10 µM: ≤ 25%

Compound: Cc1cc(C#CCN2CC(C)(C)C2)cnc1-c1cn(Cc2ncccn2)nn1 [Compound I-473]
- inhibition at 10 µM: ≤ 25%

Compound: C(#CC1CC1)c1ccc(-c2cn(CCOCC3COCCO3)nn2)cc1 (stereo not drawn) [Compound I-93]
- inhibition at 10 µM: ≤ 25%

Compound: Cc1c(-c2cn(CC3CCCCO3)nn2)ccc(C#CC2CC2)c1F (stereo not drawn) [Compound I-505]
- inhibition at 2 µM: ≤ 25%

Compound: Cc1cc(N2CCCC23CNC3)ccc1-c1cn(CC2CCCCO2)nn1 (stereo not drawn) [Compound I-150]
- inhibition at 10 µM: ≤ 25%

Compound: Cc1cc(N2CC(C)(CO)C2)cnc1-c1cn(CC2Oc3ccccc3O2)nn1 [Compound I-628]
- inhibition at 10 µM: > 75%

Compound: Cc1cc(N2CC3(CNC3)C2)ccc1-c1cn(CC2CCCCO2)nn1 (stereo not drawn) [Compound I-182]
- inhibition at 10 µM: ≤ 25%

Compound: CCOCC#Cc1cnc(-c2cn(CC3OCC(C)(C)CO3)nn2)c(OC(C)C)c1 [Compound I-838]
- inhibition at 10 µM: 50 to 75%

Compound: Cc1cc(N2CCCCC2)ccc1-c1cn(CC2CCCCO2)nn1 (stereo not drawn) [Compound I-256]
- inhibition at 10 µM: ≤ 25%

Compound: Cc1cc(C#CC2CC2)ccc1-c1cn(Cc2nccs2)nn1 [Compound I-314]
- inhibition at 10 µM: 25 to 50%

Compound: C(#CC1CC1)c1ccc(-c2cnn(CC3CCCCO3)c2)cc1 (stereo not drawn) [Compound I-317]
- inhibition at 25 µM: ≤ 25%

Compound: Cc1ccc(-c2ccc(-c3cn(CC4CCCCO4)nn3)c(C)c2)cn1 (stereo not drawn) [Compound I-36]
- inhibition at 25 µM: 25 to 50%
- IC50: > 3000 nM

Compound: Cc1cc(C#CCNC(=O)OC(C)C)cnc1-c1cn(CC2CCCCO2)nn1 (stereo not drawn) [Compound I-570, isopropyl (3-(5-methyl-6-(1-((tetrahydro-2H-pyran-2-yl)methyl)-1H-1,2,3-triazol-4-yl)pyridin-3-yl)prop-2-yn-1-yl)carbamate]
- inhibition at 10 µM: > 75%
- IC50: > 3000 nM

Compound: Cc1cc(N2CCN(Cc3ccccn3)CC2)ccc1-c1cn(CC2OCCCO2)nn1 [Compound I-532]
- inhibition at 10 µM: 25 to 50%

Compound: Cc1cc(NC(=O)CC2CC2)ccc1-c1cn(CC2CCCCO2)nn1 (stereo not drawn) [Compound I-358]
- inhibition at 2 µM: ≤ 25%

Compound: Cc1cc(C#CC2CC2)ccc1-c1cn(CC2CCCC(C)(C)O2)nn1 (stereo not drawn) [Compound I-610]
- inhibition at 2 µM: ≤ 25%

Compound: Cc1cc(N2CCN(Cc3cnccn3)CC2)ccc1-c1cn(CC2CCCCO2)nn1 (stereo not drawn) [Compound I-577]
- inhibition at 10 µM: 25 to 50%

Compound: Cc1cc(N2CC(C)(NCc3ccccn3)C2)c(F)cc1-c1cn(CC2CCCCO2)nn1 (stereo not drawn) [Compound I-737]
- inhibition at 10 µM: > 75%
- IC50: 300 to 1000 nM

Compound: C(#CC1CC1)c1ccc(-c2nnnn2CC2CCCCO2)cc1 (stereo not drawn) [Compound I-346]
- inhibition at 25 µM: 25 to 50%
- IC50: > 3000 nM

Compound: O=c1oc(CC2CCCCO2)nn1Cc1cccc(C#CC2CC2)c1 (stereo not drawn) [Compound I-18, 3-(3-(cyclopropylethynyl)benzyl)-5-((tetrahydro-2H-pyran-2-yl)methyl)-1,3,4-oxadiazol-2(3H)-one]
- inhibition at 10 µM: 50 to 75%

Compound: Cc1ccc(-c2cccc(-c3nnn(C[C@H]4CCCCO4)n3)c2)cn1 [Compound I-5]
- inhibition at 25 µM: 25 to 50%

Compound: CC1(C)CN(c2ccc(-c3cn(CC4CCCCO4)nn3)c(F)c2)C1 (stereo not drawn) [Compound I-379]
- inhibition at 10 µM: > 75%

Compound: Cc1cc(N2CCC3(CC2)CNC3)ccc1-c1cn(CC2CCCCO2)nn1 (stereo not drawn) [Compound I-186]
- inhibition at 5 µM (HEK293, single concentration 5 μM (designated D)): ≤ 25%

Compound: CN(C)c1cc(N2CC(C)(CO)C2)ccc1-c1cn(CC2OCC3(CC3)CO2)nn1 [Compound I-748]
- inhibition at 2 µM: > 75%
- IC50: ≤ 300 nM

Compound: C[S+]([O-])c1cc(C#CC2CC2)ccc1-c1cn(CC2CCCCO2)nn1 (stereo not drawn) [Compound I-218]
- inhibition at 10 µM: ≤ 25%

Compound: Cc1cc(N2CC3(CCCN3)C2)ccc1-c1cn(CC2CCCCO2)nn1 (stereo not drawn) [Compound I-147]
- inhibition at 10 µM: ≤ 25%

Compound: CCc1cc(C#CC2CC2)cnc1-c1cn(CC2OCC(C)(C)O2)nn1 (stereo not drawn) [Compound I-602]
- inhibition at 10 µM: ≤ 25%

Compound: CC1(C)CN(c2ccc(-c3cn(CC4CCCCO4)nn3)c(C(F)(F)F)c2)C1 (stereo not drawn) [Compound I-255]
- inhibition at 10 µM: 25 to 50%

Compound: COc1cc(-c2cn(C[C@H]3CCCCO3)nn2)c(C)cc1N1CC(C)(C)C1 [Compound I-422]
- inhibition at 10 µM: ≤ 25%

Compound: CC1(C)COC(Cn2cc(-c3ccc(N4CCN(Cc5ccccn5)CC4)cc3CC(F)(F)F)nn2)OC1 [Compound I-747]
- inhibition at 2 µM: > 75%
- IC50: ≤ 300 nM

Compound: Cc1cc(C#CCNc2ccccc2)ccc1-c1cn(CCOc2ccccn2)nn1 [Compound I-135]
- inhibition at 10 µM: ≤ 25%

Compound: Cc1cc(N2CC(C)(CO)C2)ccc1-c1cn(CC2OCC(C)(C)O2)nn1 (stereo not drawn) [Compound I-626]
- inhibition at 10 µM: 25 to 50%

Compound: CC1(C)COC(Cn2cnc(-c3ncc(C#CCN4CC(C)(C)C4)cc3OC3CC3)c2)OC1 [Compound I-845]
- inhibition at 10 µM: > 75%

Compound: CC(c1cccc(C#CCN2CC(C)(C)C2)c1)c1cn(CC2CCCCO2)nn1 (stereo not drawn) [Compound I-425]
- inhibition at 10 µM: 25 to 50%

Compound: CN(C)c1cc(N2CC(C)(CO)C2)c(F)cc1-c1cn(CC2OCC3(CCC3)O2)nn1 (stereo not drawn) [Compound I-786]
- inhibition at 10 µM: > 75%
- IC50: 300 to 1000 nM

Compound: Cc1cc(C#CCNc2ccccc2)ccc1-c1cn(Cc2ccccn2)nn1 [Compound I-137]
- inhibition at 10 µM: ≤ 25%

Compound: CN(C)Cc1cc(C#CC2CC2)ccc1-c1cn(CC2CCCCO2)nn1 (stereo not drawn) [Compound I-356]
- inhibition at 10 µM: 25 to 50%

Compound: Cc1cc(CO)ccc1-c1cn(CC2CCCCO2)nn1 (stereo not drawn) [Compound I-468]
- inhibition at 10 µM: 25 to 50%

Compound: Clc1ccc(C#CC2CC2)cc1-c1cn(CC2CCCCO2)nn1 (stereo not drawn) [Compound I-134]
- inhibition at 10 µM: ≤ 25%

Compound: Cc1cc(C#CC2CC2)ccc1-c1cn(CC2CC(C)(C)CCO2)nn1 (stereo not drawn) [Compound I-599]
- inhibition at 10 µM: ≤ 25%

Compound: Cc1ccc(C#CC2CC2)cc1C1(c2cn(CC3OCC(C)(C)CO3)nn2)OCCO1 [Compound I-721]
- inhibition at 2 µM: > 75%
- IC50: 300 to 1000 nM

Compound: CNC1CN(c2ccc(-c3cn(CC4CCCCO4)nn3)c(C)c2)C1 (stereo not drawn) [Compound I-184]
- inhibition at 10 µM: ≤ 25%

Compound: Cc1cc(N2CCN(Cc3cccnn3)CC2)ccc1-c1cn(CC2CCCCO2)nn1 (stereo not drawn) [Compound I-548]
- inhibition at 10 µM: 50 to 75%
- IC50: > 3000 nM
